Reference: PMC9570207, “Pharmacokinetics of Myo-Inositol in a Wistar Rat Animal Model” (International Journal of Molecular Sciences, 2022)
Read-outs that look alike come from different tables or passages of the source.

Key:
[1] = parameters: method as in PMID 32650579; details: cited from earlier work
systolic blood pressure = tested on: systolic blood pressure; parameters: method as in PMID 33113433; details: 3 mg/kg, Wistar rats; cited from earlier work
[2] = tested on: angiotensin-converting enzyme; parameters: method as in PMID 33113433; details: cited from earlier work
[3] = rat, in vivo, po, 25 mg/kg; cited from earlier work
[4] = tested on: alkaline phosphatases from bovine intestinal mucosa; parameters: method as in doi:10.1016/S0928-0987(97)00019-5; details: bovine intestinal alkaline phosphatase; cited from earlier work
[5] = Pharmacokinetics of myo-inositol in serum after oral gavage, one-compartment PK model; format: in vivo, Wistar rat; details: 2 g/kg oral
Procedure: The experiment was performed on male Wistar rats (n = 9). We used male Wistar rats in our study because hormone changes throughout the female estrus cycle may have caused female rats to react differently, making them unpredictable and providing variable results during repeated experiments. All rats were 6 weeks old and had no morphological features deviating from the standard Wistar animal model. Animals were housed in a temperature-controlled room with a 12 h light/dark cycle and free access to water and food. The study was conducted in compliance with the Local Ethics Committee for Animal Experiments in Olsztyn. Each animal received a solution of myo-inositol (2 g/kg) in distilled water by oral gavage (Agnthos, curved gastric probe, 16G, 3 mm, 75 mm tip). The animals were fasted before the administration of myo-inositol (12 h since the last meal). Food was allowed for 2 h after administration of the compound. Access to water was unlimited. In order to reduce the amount of blood collected from a single animal, the animals were divided into three groups (n = 3).
For removing of proteins, 160 μL of acetonitrile (containing […] of xylitol, as an internal standard) was added to 50 μL of rat plasma and the sample was shaken for 5 min (1300 rpm, Vortex Genie 2, Scientific Industries, Bohemia, NY, USA). After centrifugation (20,000× g at 4 °C for 10 min), the supernatant was transferred into glass chromatographic vials and concentrated in a speed vacuum evaporator to dryness. Dry residues were derivatized with a mixture of trimethylsilylimidazole (TMSI) and pyridine (1:1, v/v). TMS-derivatives of myo-inositol were analyzed by the high-resolution gas chromatography method on a gas chromatograph GC2010Plus (Shimadzu, Tokyo, Japan) with a capillary column ZEBRON ZB-1 (15 m length, 0.25 mm diameter and 0.1 μm film thickness, Phenomenex, Torrance, CA, USA). The injector temperature was 325 °C and the initial column oven temperature was 150 °C. Helium was used as a carrier gas (at a flow rate of 1.18 mL min^−1). Afterwards, the sample injection (1 μL, in a split ratio 10:1) was ramped sequentially to 200 °C at a rate of 20 °C min^−1, to 300 °C at 30 °C min^−1 and to 335 °C at 20 °C min^−1. The final temperature was held for 2.42 min and the total time of analysis was 10 min. The detector was maintained at 350 °C. Myo-inositol was quantified by using the standard: myo-inositol from Sigma. The content of myo-inositol was calculated from the standard curves of appropriate components.
The data fitting was performed with NONMEM software (Version 7.3.0; ICON Development Solutions, Ellicot City, MD, USA) and the Gfortran compiler 9.0. NONMEM runs were executed using Wings for NONMEM (WFN730; http://wfn.sourceforge.net). The NONMEM data processing and plots were performed in Matlab Software (Version 0.1; The MathWorks, Natick, MA, USA). The schematic representation of the PK model is given in Figure 4. dA/dt=−ka∗AA(0)=DPO dX/dt=k−CL/F/V/F∗A+ka∗AX(0)=C0∗V/F where A and X denote the amount of myo-inositol in the absorption and central compartment, F denotes bioavailability, DPO denotes an oral dose of myo-inositol, ka denotes absorption rate constant, kin denotes an endogenous input of myo-inositol, CL denotes clearance, V denotes volume of distribution, and C0 denotes endogenous concentration of myo-inositol. CL and V were estimated as apparent due to uncertain bioavailability (CL/F and V/F). The steady-state concentration of myo-inositol implies the following relationship: k=C0∗CL/F
The concentration of myo-inositol in serum is given by: C=X/V/F
The observed concentrations (Cobs) were related to model predictions through the following equation (proportional residual error model): Cobs=C∗(1+ε) where ε is a normal random variable with standard deviation σ.

[6] = 100 mg/kg oral, male Wistar rats, liver

For `CO[C@H]1[C@H](O)[C@@H](O)[C@@H](O)[C@H](O)[C@@H]1O` [DP, D-pinitol], the “Time at which plasma DP level became detectable” value ([1]; 100 mg/kg oral, 18 h food-deprived male Wistar rats, plasma) is listed as 10 min, the “Time at which liver concentration became detectable” value [1, 6] is listed as 30 min and the “Time of peak liver concentration” value [1, 6] is listed as 120 min. For the same compound, the “Time of plasma peak” value ([1]; 100 mg/kg oral, male Wistar rats, plasma) was 1 h, the “Time of peak in liver” value ([1]; 500 mg/kg oral, Wistar rats, liver) was 120 min and the “Time of peak in plasma” value ([1]; 500 mg/kg oral, Wistar rats, plasma) was 120 min. The “Accumulation in the liver” value ([1]; oral DP, Wistar rats, liver) was “no accumulation was detected”, the “Half-life time, liver” value ([1]; oral DP, Wistar rats, liver) was 2.57 h and the “Half-life time, plasma” value ([1]; oral DP, Wistar rats, plasma) was 1.8 h. The “Time after which completely cleared” value ([1]; oral DP, Wistar rats) was 6 h.

For `COC1[C@H](O)[C@H](O)C(O)[C@H](O)[C@H]1O` (stereo partly drawn) [LB, L-(+)-bornesitol], the “Effect on systolic blood pressure” value (systolic blood pressure) is given as “reduced the systolic blood pressure”, the Angiotensin-converting enzyme inhibition [2] is given as “potent” and the “Dose proportionality of peak concentration and AUC” value [3] is given as “non-linear pharmacokinetics”. For the same compound, the “Time to peak plasma concentration” value [3] was “approximately 1 h” and the half-life [3] was 1.202 to 2.0615 h.

In the case of `O=P(O)(O)OC1[C@H](OP(=O)(O)O)[C@H](O)C(O)[C@H](O)[C@H]1OP(=O)(O)O` (stereo partly drawn) [a-trinositol, d-myo-inositol 1,2,6-trisphosphate], the “Dephosphorylation by intestinal enzymes” value [4] is given as “extensive dephosphorylation”.

In the case of `O[C@H]1[C@H](O)[C@@H](O)[C@H](O)[C@@H](O)[C@H]1O` [myo-inositol], the “Evidence of harm from the dosage during the study” value ([5]; Wistar rats) is reported as “no significant evidence of harm”, the “Time after which the level of MI started to drop” value ([5]; Wistar rats) is reported as 2 h and the “Time of highest peak of MI after administration” value ([5]; Wistar rats) is reported as 1 h. The “Serum level approximately after 24 h compared with before administration” value ([5]; Wistar rats, 24 h) was “still higher than before administration”, the k el ([5]; male, rat, serum, secondary parameter, Wistar rats, read-out: Kel, Elimination rate constant, (CL/F)/(V/F) (converted)) was 4.72e-05 s⁻¹ and the half-life ([5]; male, rat, serum, secondary parameter, Wistar rats, read-out: T0.5, Biological half-life, ln(2)/kel (converted)) was 4.08 h. The “Mean MI in Rat Serum” value ([5]; rat 1A (ID:1), group 1, times 0, 0.25, 0.5, 1, 24 h) was 45.69 µg/mL, the “Mean MI in Rat Serum” value ([5]; rat 1B (ID:4), group 2, times 0, 2, 4, 8, 12, 24 h) was 45.70 µg/mL and the “Mean MI in Rat Serum” value ([5]; rat 1C (ID:7), group 3, times 0, 1.5, 36, 48 h) was 46.23 µg/mL. The “Mean MI in Rat Serum” value ([5]; rat 2A (ID:2), group 1, times 0, 0.25, 0.5, 1, 24 h) was 60.00 µg/mL, the “Mean MI in Rat Serum” value ([5]; rat 2B (ID:5), group 2, times 0, 2, 4, 8, 12, 24 h) was 46.23 µg/mL and the “Mean MI in Rat Serum” value ([5]; rat 2C (ID:8), group 3, times 0, 1.5, 36, 48 h) was 49.38 µg/mL. For the same compound, the “Mean MI in Rat Serum” value ([5]; rat 3A (ID:3), group 1, times 0, 0.25, 0.5, 1, 24 h) was 57.46 µg/mL, the “Mean MI in Rat Serum” value ([5]; rat 3B (ID:6), group 2, times 0, 2, 4, 8, 12, 24 h) was 39.86 µg/mL and the “Mean MI in Rat Serum” value ([5]; rat 3C (ID:9), group 3, times 0, 1.5, 36, 48 h) was 38.33 µg/mL. The “AUC, Area under concentration–time curve, F·D/CL” value ([5]; secondary parameter, Wistar rats) was 2.34 mg·h/L/kg.
